{
  "source": "patent US11364231B2",
  "about": "“Methods of treating radiation induced gastrointestinal syndrome (RIGS) and related disease states using YEL002/BCN057” (priority 2017, dated 2022)",
  "key": {"WNT target genes": {"tested_on": "WNT target genes", "test": "qPCR of WNT target genes in irradiated human colonic organoids", "format": "cell-based", "conditions": "epithelial cells from irradiated human colonic organoids treated with BCN057", "method": "(B-C, Data was the average of 3 human subjects).\nTo examine the effect of BCN057 on human intestinal, epithelial tissue surgical specimen collected from normal colon at least 10 cm apart from malignant site was used to develop ex vivo crypt organoid. At a dose level of 8 Gy all the budding crypts have been disappeared in the organoids. […] The effect of BCN057 on mRNA level of β-catenin target genes in organoids was also evaluated."}, "[1]": {"test": "Solubility in aqueous formulations", "format": "physicochemical", "method": "In another embodiment formulation for intravenous, subcutaneous and oral delivery of therapeutic levels of Yel002/BCN057 were developed comprising 30 wt % Captisol (SBE-beta-CD) and 100 mM MSA at pH 4.1 or higher (adjusted with 1.0 N NaOH)."}, "[2]": {"tested_on": "irradiated intestinal epithelium (jejunum)", "test": "Jejunum histology and crypt proliferation after AIR", "format": "in vivo", "source_text": "Since radiation doses>8 Gy induces cell cycle arrest and apoptosis of the crypt epithelial cells within day 1 post-radiation, resulting in a decrease in regenerating crypt colonies by day 3.5 and ultimately villi denudation by day 7 post-radiation exposure, animals were sacrificed when moribund or at 3.5 days after AIR for time course experiments and intestines were collected for histology. The intestine of each animal was dissected, washed in PBS to remove intestinal contents and the jejunum was fixed in 10% neutral-buffered formalin before paraffin embedding. Tissue was routinely processed and cut into 5 μm sections for haematoxylin and eosin and immunohistochemical staining. All haemotoxylin and eosin (HE) (Fisher Scientific, Pittsburgh, Pa.) staining was performed at the Pathology Core Facility in the KUMC Cancer Center.\nTo visualize villous cell proliferation mid-jejunum was collected for paraffin embedding and Ki67 immunohistochemistry. Tissue sections were routinely deparaffinized and rehydrated through graded alcohols and incubated overnight at room temperature with a monoclonal anti Ki67 antibody. Nuclear staining was visualized using streptavidin-peroxidase and diaminobenzidine (DAB) and samples were lightly counterstained with haematoxylin. […] The proliferation rate was calculated as the percentage of KI67-positive cells over the total number of cells in each crypt. A total of 60 crypts were examined per animal.\nCrypt depth was independently and objectively analyzed and quantitated in a blind manner from coded digital photographs of crypts from HE-stained slides using ImageJ 1.37 software to measure the height in pixels from the bottom of the crypt to the crypt villus junction. Villi length was determined by measuring the length from the crypt villus junction to villous tip. This measurement in pixels was converted to length (in μm) by dividing with the following a conversion factor (1.46 pixels μm-1)."}, "[3]": {"conditions": "jejunum, BCN057 at 24 hrs after AIR vs irradiated control"}},
  "note": "“Also recorded” adds a separate entry of the source.",
  "data": [
    {"smiles": "COc1ccc2cc(-c3nc4ccc(C)cn4c3NCc3ccco3)c(=O)[nH]c2c1", "note": "[BCN057, 3-(3((furan-2-ylmethyl)ammo)-6-methylimidazo[1,2-a]pyridine-2-yl)-6-methoxyquinolin-2(1H)-one]", "values": [
      {"measurement": "mRNA level of WNT / β-catenin target genes", "setting": "WNT target genes", "value": "several fold increase; also recorded: increases"},
      {"measurement": "solubility", "setting": "[1]; 30 wt % Captisol (SBE-beta-CD) and 100 mM MSA, at up to pH 4.1 or higher", "value": "excellent solubility"},
      {"measurement": "solubility in aqueous solution", "setting": "[1]; physiologically compatible pHs, 100 mM MSA/10% PVP, 100 mM MSA/2% benzyl alcohol/2% NMP, 100 mM MSA/10% ethanol/1% Poloxamer 188", "value": "solubalized"},
      {"measurement": "number of crypt in jejunum", "setting": "[2]; BCN057 at 24 hrs after AIR vs irradiated control", "value": "increase in number of crypts"},
      {"measurement": "crypt villus structure / epithelium (HE staining)", "setting": "[2]; jejunum, 3.5 day after AIR, BCN057 at 24 hrs post AIR", "value": "normal crypt villus structure; also recorded: restitution of epithelium"},
      {"measurement": "% of Ki67 positive crypt cells", "setting": "[2]; [3]", "value": "increase in crypt cell proliferation"},
      {"measurement": "Crypt Depth villi length", "setting": "[2]; [3]", "value": "preserved villous length; also recorded: increase"}
    ]}
  ]
}
